According to patent US8642801B2 (BHI Limited Partnership, priority 2003, dated 2014):

Tested on: Aβ40 and Aβ42 peptides in plasma and brain of TgCRND8 mice
Test: Short term treatment in adult transgenic CRND8 mice overexpressing βAPP: Aβ levels in plasma and brain by ELISA
Assay type: in vivo, Mouse
Conditions: after 14 and 28 days of treatment, TgCRND8 mice
Summary of the method: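 TgCRND8 mice (B6C3F1 backcross, ~11 weeks at treatment start) given short-term treatment; Aβ40 and Aβ42 in plasma and soluble/insoluble brain fractions measured by fluorometric sandwich ELISA (ex 460/em 560 nm). Levels normalized to vehicle (water or methylcellulose) groups and scored as +/− symbols by effect strength.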

Q: For `CC(C)(C)NCCCS(=O)(=O)O` [BX, 3-(t-butyl)amino-1-propanesulfonic acid], which “levels of Aβ peptides in the plasma” value is on record?
A: The value was “significant increase”.
